Literature values, collected in US7816516B2, “Conjugates of hydroxyalkyl starch and an active agent” (Fresenius Kabi Deutschland GmbH, priority 2001, dated 2010).

Experiments:
[1] = in vivo
[2] = isolated haemoglobin; dimers eliminated via the kidneys

Molecule	portion of renal elimination [1]	biological half-life in the blood circulation [2]
CO[C@@]12[C@H](COC(N)=O)C3=C(C(=O)C(C)=C(N)C3=O)N1C[C@@H]1N[C@@H]12 [mitomycin C]	approximately 18%	
haemoglobin		approx. 1 hour
